Patent US20070293517A1, “Derivatives Of Chemotherapeutic Agents With A Formaldehyde Releasing Moiety” (RAMOT AT TEL AVIV UNIVERSITY LTD., priority 2004, published 2007)

How the values were obtained:
HT-29 = experiment: Proliferation assay, HT-29 cells; assay type: cell-based, human; settings: for IC90: HT-29; for IC50: HT-29, HT-29
various cell lines = experiment: Dose response studies in various cell lines, absence and presence of semicarbazide; assay type: cell-based; settings: semicarbazide 0.5 mM
Description: (§1) Proliferation assay: cells at a density of 3-5×10^4 cells/ml in 200 μl medium supplemented with 10% FCS were seeded in tissue culture 96-well plates for 24 hours, and were then exposed for 72 hours to a novel derivative of a chemotherapeutic agent (in quadruplicate) as specified. After 3 days, the cells were rinsed with PBS, and fixed with ethanol (70%) for 30 minutes. The ethanol was thereafter discarded, 200 μl of 10 μg/ml HOECHST fluorescent dye (Sigma) solubilized in PBS were added and the fluorescence was measured at 390-460 nm with a FluoStar fluorometer. MTT solution (10 ml of 5 mg/ml MTT (Sigma) in PBS) was added, and the plate was incubated for 3 hours. Formazan crystals were dissolved with 140 ml of 0.04 HCl-isopropanol. The optical density of the wells was measured with a microplate reader at 540 nm.
Semicarbazide sensitive amine oxidase is a source of formaldehyde and is therefore a marker for the effect of formaldehyde. It has been shown that semicarbazide traps formaldehyde and reduces its concentration inside the cell (Nudelman et al. J. Med. Chem., 2005, 48, 1047-1054). Thus, the critical role of formaldehyde can be confirmed by reversal of formaldehyde-mediated effects by the addition of semicarbazide.
Tables 3 and 4 below, as well as FIGS. 7A, 7B and 8A-8D present the dose response studies performed with various cell lines in the absence and presence of semicarbazide, the formaldehyde trapping agent.

[1] = test system: colon cancer cells (LS-1034 and HT-29); experiment: Survival of colon cancer cells (both lines); assay type: cell-based, human
Description: (§2) Cells: The human breast cancer cell lines MCF-7 and MCF-7 DX, were obtained from Dr. R. Supino (Laboratorio Oncologia, Milano, Italy); the murine 3LLD122 highly metastatic Lewis lung carcinoma cell line was obtained from Dr. Eisenbach L, the Weizmann Inst., Israel. […]
as §1, with “After 3 days, the cells were rinsed with PBS, and fixed with ethanol (70%) for 30 minutes.” left out, “MTT solution (10 ml of 5 mg/ml MTT (Sigma) in PBS) was added, and the plate was incubated for 3 hours. Formazan crystals were dissolved with 140 ml of 0.04 HCl-isopropanol.” left out
(§3) IC50 and IC90 values were determined from the best-fitted curve where the percentages of survival were 50 or 90 respectively.

MES SA DXS = experiment: Proliferation assay, MES SA DXS cells; assay type: cell-based, human; settings: MES SA DXS
Source text: (§4) Cells: The human breast cancer cell lines MCF-7 and MCF-7 DX, were obtained from Dr. R. Supino (Laboratorio Oncologia, Milano, Italy); the murine 3LLD122 highly metastatic Lewis lung carcinoma cell line was obtained from Dr. Eisenbach L, the Weizmann Inst., Israel. The following cell lines were purchased from the ATCC, USA: CT-26, an N-nitroso-N-methylurethane-(NNMU) induced murine (BALB-C) colon carcinoma; Panc02, a mouse (C57/Bl) pancreas adenocarcinoma; HT-49, a human colorectal adenocarcinoma; LS1034, a multidrug resistant human colorectal carcinoma; BxPC-3 human pancreas adenocarcinoma; MES-SA and MES-SA-DXS, human uterine sarcoma sensitive and multidrug resistant, respectively; and Human prostate carcinoma 22RV1, a subclone of CWR22 cells.
(§5) The cells were maintained in DMEM growth medium supplemented with 10% heat inactivated fetal calf serum, 2 mM glutamine, penicillin (250 units/ml) and streptomycin (125 μg/ml) in a humidified 5% CO2/air atmosphere at 37° C.
as §1, §3

[2] = test system: sensitive and resistant uterine cancer cells (MES-SA, MES-SA DXS); experiment: Proliferation/survival, sensitive and resistant uterine cancer cells (both lines); assay type: cell-based, human
Source text: as §4, §1, §3

[3] = test system: HT-29 human colon carcinoma; experiment: Xenograft flank colon carcinoma model, HT29; assay type: in vivo; settings: nude mice
Description: Xenograft flank colon carcinoma models: Eight weeks old, male CD1 nude mice (Harlan, Israel) were inoculated sc in the flanks with 5×10^6 HT29 or LS1034 cells. When tumor volume reached 50-100 mm^3, treatment with derivatives of chemotherapeutic agents according to the present embodiments commenced and was given by gavage five times a week for the duration of the experiment at the specified doses. Tumor volume (determined by caliper) and body weights were measured twice weekly. Tumor volume was measured (mm) using the formula for an ellipsoid sphere: Length×Width^2/2=Volume (mm)^3 This commonly used formula was also used to calculate tumor weight, assuming unit density (1 mm^3=1 mg). Serum PSA or CEA: […] At the end of the experiment blood samples were drawn from the eyes of mice (anesthetized slightly by inhalation of ether) or from the hearts of sacrificed animals.

MES SA = experiment: Proliferation assay, MES SA cells; assay type: cell-based, human
Source text: as §4, §5, §1, §3

[4] = test system: 3LLD122 Lewis lung carcinoma; experiment: Metastatic lung model (Lewis lung carcinoma); assay type: in vivo, mice
Description: Metastatic lung model: Female C57/BL mice, 6-10 weeks (Harlan, Israel) were […] implanted (in the tail vein) with 5×10^5 3LLD122 cells. Treatment with a derivative of a chemotherapeutic agent according to the present embodiments, for five days per week, commenced 24 hours post cell implantation. After 21 days the animals were sacrificed and their lung lesions were scored under an illuminated magnifying glass.

BXPC-3 = experiment: Proliferation assay, BXPC-3 cells; assay type: cell-based, human
Source text: as §4, §5, §1, §3

Panc 02 = experiment: Proliferation assay, Panc 02 cells; assay type: cell-based; settings: Mus musculus, Panc02
Source text: as §4, §5, §1, §3

[5] = test system: human colon carcinoma cells (LS1034); experiment: Xenograft flank colon carcinoma model, LS1034; assay type: in vivo; settings: nude mice sc implanted with LS1034
Description: Xenograft flank colon carcinoma models: Eight weeks old, male CD1 nude mice (Harlan, Israel) were inoculated sc in the flanks with 5×10^6 HT29 or LS1034 cells. When tumor volume reached 50-100 mm^3, treatment with derivatives of chemotherapeutic agents according to the present embodiments commenced and was given by gavage five times a week for the duration of the experiment at the specified doses. Tumor volume (determined by caliper) and body weights were measured twice weekly. Tumor volume was measured (mm) using the formula for an ellipsoid sphere: Length×Width^2/2=Volume (mm)^3
Survival was estimated by the Kaplan-Meier curves, and the difference in survival between the groups was analyzed by Wilcoxon's test and using a log-rank test chi-square (JMP 5.0.1.2, Chicago, Ill.).

LS-1034 = experiment: Proliferation assay, LS-1034 cells; assay type: cell-based, human; settings: for IC90: LS-1034; for IC50: LS-1034, LS-1034
Source text: as §4, §5, §1, §3

CT-26 = experiment: Proliferation assay, CT-26 cells; assay type: cell-based, murine
Source text: as §4, §5, §1, §3

[6] = test system: prostate carcinoma cells 22RV; experiment: Viability of prostate carcinoma cells 22RV; assay type: cell-based, human
Description: as §2
as §1, with “After 3 days, the cells were rinsed with PBS, and fixed with ethanol (70%) for 30 minutes.” left out, “MTT solution (10 ml of 5 mg/ml MTT (Sigma) in PBS) was added, and the plate was incubated for 3 hours. Formazan crystals were dissolved with 140 ml of 0.04 HCl-isopropanol.” left out
Apoptosis assay: Cells (2×10^5 cells/ml) were seeded in 24-well plates and incubated with a derivative of a chemotherapeutic agent according to the present embodiments, as specified, for 24 hours. […] Alive, apoptotic and total dead cells were quantitated by flow cytometry using a FACS calibur cytometer (Becton Dickinson).

O=c1c(F)cn([C@H]2CCCO2)c(=O)n1CO [AN-436, 5-fluoro-1-((R)-tetrahydrofuran-2-yl)-3-(hydroxymethyl)pyrimidine-2,4(1H,3H)-dione]
IC90 (HT-29; + SC 500 μM): 303 ± 7 µM
IC90 (HT-29; Homo sapiens): 115 ± 7 µM
IC50 (HT-29; Homo sapiens): 67 ± 2 µM
IC50 (HT-29; Homo sapiens, + SC (semicarbazide) 500 μM): 164 ± 12 µM
reduction of cell killing by co-treatment with semicarbazide (various cell lines): up to 3.5 folds
fold more potent than tegafur, based on IC50 values [1]: ≥ 2.5 fold
IC50 (MES SA DXS; Homo sapiens): 63 ± 4 µM
IC90 (MES SA DXS; Homo sapiens): 101 ± 2 µM
IC50 (MES SA DXS; + SC 500 μM): 203 ± 75 µM
IC90 (MES SA DXS; + SC 500 μM): 356 ± 144 µM
maximal cell killing achieved [2]: 100%
CEA level in serum [3]: reduced the level significantly
tumor growth inhibition ([3]; P<<0.001): substantially inhibited tumor growth
inhibitory effect on tumor growth compared with tegafur ([3]; p<0.05): significantly higher than the parent compound
IC50 (MES SA; + SC 500 μM): 182 ± 18 µM
IC90 (MES SA; + SC 500 μM): 456 ± 189 µM
IC50 (MES SA; Homo sapiens): 71 ± 12 µM
IC90 (MES SA; Homo sapiens): 127 ± 19 µM
antimetastatic activity (number of lung lesions) [4]: significantly evident
IC50 (BXPC-3; + SC 500 μM): 160 ± 17 µM
IC90 (BXPC-3; + SC 500 μM): 460 ± 78 µM
IC50 (BXPC-3; Homo sapiens): 81 ± 9 µM
IC90 (BXPC-3; Homo sapiens): 191 ± 47 µM
IC50 (Panc 02): 96 ± 9 µM
IC90 (Panc 02): 219 ± 25 µM
survival after 82 days [5]: 75%
IC90 (LS-1034; Homo sapiens): 153 ± 16 µM
IC50 (LS-1034; Homo sapiens): 84 ± 8 µM
IC50 (LS-1034; Homo sapiens, + SC 500 μM): 132 ± 7 µM
IC90 (LS-1034; + SC 500 μM): 252 ± 30 µM
IC90 (CT-26; CT-26, + SC 500 μM): 296 ± 28 µM
IC50 (CT-26; Mus musculus, CT26, CT-26, + SC 500 μM): 132 ± 26 µM
IC50 (CT-26; Mus musculus, CT26, CT-26): 99 ± 5 µM
IC90 (CT-26; Mus musculus, CT26, CT-26): 170 ± 9 µM

CCCC(=O)OCN1C(=O)CCC(N2C(=O)c3ccccc3C2=O)C1=O (stereo not shown) [AN-438, 2-(1-butroyloxymethyl-2,6-dioxopiperidin-3-yl)isoindoline-1,3-dione]
reduction of viability compared with thalidomide (HT-29; human colon cells HT-29): significantly more effective in reducing the viability
reduction of viability compared with thalidomide ([6]; prostate carcinoma cells 22RV): significantly more effective in reducing the viability
effect on viability on addition of semicarbazide ([6]; prostate carcinoma cells, 0.5 mM semicarbazide): abrogated the effect
